Measured values: patent US7341983B2, “Antimicrobial compositions including carboxylic acids and alkoxylated amines” (Ecolab Inc., priority 2003, dated 2008)

Assay: Solution appearance with various types and amounts of alkoxylated amines
Format: physicochemical
Settings: 2.4 wt-% octanoic acid, 21 wt-% phosphoric acid (75%), 8.0 wt-% citric acid, remainder water
From the text: Test compositions were made with varying amounts and types of alkoxylated amines. These were made to include 2.4 wt-% octanoic acid, 21 wt-% phosphoric acid (75%), 8.0 wt-% citric acid, varying amounts of alkoxylated amine, with the remainder water.

iso-(2-hydroxyethyl) isodecyloxypropylamine [Alkoxylated Amine 6]
Solution appearance (2.5 wt-% alkoxylated amine): hazy yellow
Solution appearance (3 wt-% alkoxylated amine): hazy yellow
Solution appearance (3.5 wt-% alkoxylated amine): hazy
Solution appearance (4 wt-% alkoxylated amine): milky yellow
Solution appearance (4.5 wt-% alkoxylated amine): opaque-yellow
Solution appearance (5 wt-% alkoxylated amine): separated
